The source of these data is PubChem BioAssay AID1850 (Southern Research Specialized Biocontainment Screening …, 2009).

The IC50 is the midpoint of a concentration-inhibition curve.

SMILES strings stand for the structures. Values joined by “and” are separate entries in the source; they are usually repeats but may differ in a detail not shown here. Identical values can stand only once.

The subject of this assay is Salmonella Typhi PhoP-promoter GFP reporter, fluorescence, 4 h. The experiment in a line: PhoP regulon inhibitors, Salmonella typhi PhoP promoter GFP reporter, confirmatory (AID 1850).

`Cc1ccc2c(c1)c1c(n2CC(O)CNC2CCCCC2)CCCC1` (stereo not given): the IC50 was 46.9 µM.
For `O=C(Cc1cccs1)N/N=C\c1ccc([N+](=O)[O-])s1`, the IC50 was 35 µM.
In the case of `CCCCCCCSc1cc(OC)c(CCNC)cc1OC`, the IC50 was 35.9 µM.
In the case of `COc1ccccc1Nc1c2ccccc2nc2ccccc12`, the IC50 was 36.3 µM.
For `CN(C)CCCN1c2ccccc2CCc2ccc(Cl)cc21` the value was 102 µM.
Consider `CCN1/C(=C/C(C)=C/c2sc3ccccc3[n+]2CC)Sc2ccccc21`, for which the IC50 was 4.88 µM.
The figure for `O=C(N/N=C\c1cccc([N+](=O)[O-])c1O)C1COc2ccccc2O1` (stereo not given) is 27.4 µM; for `CCN1/C(=C/c2cc[n+](C)cc2)C=Cc2cc(C)ccc21` it is 36.9 µM.
In the case of `O=C(C[n+]1cc(-c2ccccc2)n2c1CCC2)Nc1nc(-c2ccc(F)cc2)cs1`, the IC50 was 38.7 µM.
Regarding `CN(C)CC/C=C1/c2ccccc2Sc2ccc(Cl)cc21`, the IC50 is 49.1 µM.
Consider `CN1CCN(C2=Cc3ccccc3Sc3cc(F)ccc32)CC1`, for which the IC50 is 66.6 µM.
For `O=C1C(=O)c2ccccc2-c2ccccc21`, the IC50 is 20.7 µM.
For `CCn1cc(C(=O)NCCO)c(=O)c2cc(F)c(N3CCN(C)CC3)cc21`, the IC50 is 9.31 µM.
With `O=C(Oc1c(Cl)cc(Cl)c2cccnc12)c1cccc([N+](=O)[O-])c1`, the IC50 was 8.4 µM.
Regarding `C#CCOCCOCCOCCNc1nc(N2CCN(C(=O)CCCCCCCCCCNC(=O)[C@H]([C@@H](C)CC)n3cc(CCCCCN)nn3)CC2)nc(N2CCN(C(=O)CCCCCCCCCCNC(=O)[C@H]([C@@H](C)CC)n3cc(CCCCN=C(N)N)nn3)CC2)n1`, the IC50 is 20.1 µM.
With `COc1ccccc1CNCCc1ccc(F)cc1`, the IC50 was 24.8 µM.
In the case of `C#CCOCCOCCOCCNc1nc(N2CCN(C(=O)CCCCCCCCCCNC(=O)[C@H]([C@@H](C)CC)n3cc(CCCCN=C(N)N)nn3)CC2)nc(N2CCN(C(=O)CCCCCCCCCCNC(=O)[C@H](CO)n3cc(CCCCCN)nn3)CC2)n1`, the IC50 is 34.7 µM.
For the compound `Cc1cc(OCCCCCN2CCCC2)ccc1Cl`, the IC50 is 122 µM.
The figure for `CCC(C)(C)c1ccc(OCCCC[n+]2ccccc2)c(C(C)(C)CC)c1` is 19.2 µM; for `Nc1nc(F)nc2c1ncn2[C@@H]1O[C@H](CO)[C@@H](O)[C@H]1O` it is 32.9 µM; for `O=C(CNCCC1=CCCCC1)Nc1ccc(N2CCCCCC2)cc1` it is 29.6 µM.
Take `Fc1ccc(Nc2nc(NCc3ccco3)c3ccccc3n2)cc1`: the IC50 is 3.81 µM.
For the compound `CN1CCN(C(c2cccc(Cl)c2)c2ccccc2Cl)CC1` (stereo not given), the IC50 is 103 µM.
For `CC(=O)NC(=S)NNC(=O)c1ccc(Br)cc1`, the IC50 is 34.9 µM.
Regarding `O=c1[nH]c(=S)ccn1C1OC(CO)C(O)C1O` (stereo not given), the IC50 is 28.6 µM.
Take `Cc1ccc(O)c(Nc2c3ccccc3nc3ccccc23)c1`: the IC50 was 27.7 µM.
Regarding `O=C(N/N=C/c1ccccc1O)C1SCCCS1`, the IC50 is 87.9 µM.
The figure for `CN(C)[C@@H]1C(=O)C(C(N)=O)=C(O)[C@@]2(O)C(=O)C3=C(O)c4c(O)cccc4[C@@](C)(O)C3[C@H](O)C12` (stereo not given in full) is 1.03 µM and 4.02 µM; for `c1ccc(CNc2nc(N3CCN(Cc4ccccc4)CC3)nc3ccccc23)cc1` it is 18.2 µM; for `CCCCCCCCC[n+]1cccc2c3ccccc3ccc21` it is 18.6 µM.
As for `Cc1ccc(C)c(NC(=O)CCC(=O)N/N=C/c2cc([N+](=O)[O-])ccc2O)c1`, the IC50 is 60.6 µM.
With `Fc1ccc(Nc2c3c(nc4ccccc24)CCC3)cc1`, the IC50 was 35.1 µM.
As for `O=C(NC(=S)NNC(=O)c1ccccc1O)c1ccco1`, the IC50 is 29.5 µM.
Regarding `CC(=O)NC(c1cccs1)c1cc([N+](=O)[O-])c2cccnc2c1O` (stereo not given), the IC50 was 31.7 µM.
Take `O=C1OCC(CO)(CO)N=C1NNc1ccc(Cl)c(Cl)c1`: the IC50 is 47.9 µM.
As for `COc1cccc(NC2=NC3(CCCCC3)N=C(N)N2)c1`, the IC50 is 75.6 µM.
Consider `Cc1ccc(C(=O)NNC(=S)NC(=O)COc2ccccc2)cc1`, for which the IC50 is 115 µM.
In the case of `Oc1[nH]c2ccc(Br)cc2c1N=NC(=S)N1CCOCC1`, the IC50 is 36.6 µM.
Consider `O=C(Nc1cccnc1)c1cc(Br)c(Br)s1`, for which the IC50 is 19.1 µM.
`CCn1nc(C(=O)O)c(=O)c2cc3c(cc21)OCO3`: the IC50 was 34.6 µM.
For `Clc1cccc(CN2CCc3c([nH]c4ccccc34)C2)c1Cl` the value was 76.5 µM; for `CCOc1ccc(/C=N/NC(=O)c2[nH]ncc2Br)c(O)c1`, 138 µM.
For the compound `CCCCC(=O)NNC(=S)NC(=O)CCC`, the IC50 was 97.4 µM.
Turning to `Clc1ccc(/C=C/c2ncc[nH]2)c(Cl)c1`, the IC50 was 38.1 µM.
With `CCOC(=O)N1CCN(CCC(=O)c2ccc(Br)cc2)CC1`, the IC50 was 94.5 µM.
For `C#CCOCCOCCOCCNc1nc(N2CCN(C(=O)CCCCCCCCCCNC(=O)[C@@H](CCSC)n3cc(CCO)nn3)CC2)nc(N2CCN(C(=O)CCCCCCCCCCNC(=O)[C@H]([C@@H](C)CC)n3cc(CCCCN=C(N)N)nn3)CC2)n1` the value was 82.7 µM; for `COc1cc(CNCCc2ccccc2)cc(Cl)c1OCc1ccccc1`, 35.9 µM; for `O=C(NC(=S)NNC(=O)c1cccs1)c1ccc(Br)o1`, 64.3 µM.
On to `Cc1ccc(Nc2c3c(nc4ccccc24)CCC3)cc1`, for which the IC50 was 19.1 µM.
As for `N/C(=N\OS(=O)(=O)c1ccccc1)c1cccnc1`, the IC50 was 14.2 µM.
For the compound `N/C(=N\OS(=O)(=O)c1ccc2ccccc2c1)c1cccnc1`, the IC50 is 20.7 µM.
As for `CC1(C)N=C(N)N=C(N)N1c1ccc(Oc2ccc(Cl)cc2)c(Cl)c1`, the IC50 was 33.8 µM.
For `Cc1ccc(C(=O)NCCN2C3=NC[C@@H](Cc4ccccc4)N3C[C@H]2Cc2ccc(O)cc2)cc1Br` the value was 47.2 µM.
For `O=C(CSc1ccccn1)N/N=C/c1cc([N+](=O)[O-])ccc1O` the value was 76.1 µM; for `COc1ccc(CCN2CCC(Nc3nc4ccccc4n3Cc3ccc(F)cc3)CC2)cc1`, 37.7 µM.
As to `COc1ccc(Nc2ccnc3ccccc23)cc1`, the IC50 is 52.2 µM.
Regarding `CCCCn1c(NS(=O)(=O)c2ccccc2)c(S(=O)(=O)c2ccc(C)cc2)c2nc3ccccc3nc21`, the IC50 is 5.99 µM.
For `N#C/C(=C\c1ccc[nH]1)C(=O)NC1CC1` the value was 73.8 µM; for `COc1cc(C(=O)O/N=C2\C=CC(=O)C(C)=C2)cc(OC)c1OC`, 121 µM.
Regarding `Cc1ccc(S(=O)(=O)NNc2ccccc2)c(C)c1`, the IC50 is 38.3 µM.
In the case of `Cc1ccc2sc(N(CCCN(C)C)C(=O)c3ccc(Br)s3)nc2c1C`, the IC50 is 36.8 µM.
For the compound `CCOC(=O)C1=C(c2ccccc2)NC(N)=NC1c1ccc(OCc2ccc(C(=O)OC)cc2)cc1` (stereo not given), the IC50 is 34.4 µM.
As to `Oc1ccc(C2NCc3ccccc3-n3cccc32)cc1Cl` (stereo not given), the IC50 was 150 µM.
As to `CCCCCCCCCCCCOC(=O)C[N+](C)(C)C`, the IC50 was 29.9 µM.
In the case of `Cc1ccc(C(OCC(O)CNCc2ccc(F)cc2)c2ccccc2)cc1` (stereo not given), the IC50 is 48.4 µM.
For `CNC[C@H](CC1CCCCC1)NC[C@H](Cc1ccccc1)NCCC12CC3CC(CC(C3)C1)C2` the value was 12.8 µM; for `CC[n+]1c(/C=C/C=C/c2ccc(N(C)C)cc2)sc2ccccc21`, 39.2 µM.
For `CCn1cc(C(=O)O)c(=O)c2cc(F)c(N3CCN(S(=O)(=O)c4ccc(NC(C)=O)cc4)CC3)cc21` the value was 103 µM; for `O=c1c2ccccc2nc(N/N=C/c2c(O)ccc3ccccc23)n1O`, 24.9 µM; for `NC1=NC[C@H](Cc2ccc(O)cc2)N1CCC12CC3CC(CC(C3)C1)C2`, 35.8 µM.
